Tested on: human ventricular trabeculae
Experiment: Action potential recording and pro-arrhythmic score analysis in human ventricular trabeculae (hVT);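 note: sharp microelectrode action potential recordings at 37°C in Tyrode-perfused trabeculae, 4 cumulative concentrations each applied 31 min, values averaged over last 30 APs, vehicle 0.1% DMSO as control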
Conditions: for Refractoriness Escape (raw data) / Beat Escape (raw data) / EADs (raw data): n=4 trabeculae
Protocol: Briefly, the human heart was transferred into a dissection vessel containing a cold (4°C), fresh proprietary dissection solution. The heart was maintained completely submerged in dissection solution. Ventricular trabeculae were dissected and transferred to the recording chamber.
Briefly, a single tissue was mounted into the experimental chamber filled with oxygenated Tyrode's external solution. The temperature of the solution was maintained at 37°C with flow rate at 5 mL per minute. The tissue was allowed to equilibrate for 30–60 min with stimulation (3 V, 3 ms) at a frequency of 1.0 Hz. High impedance borosilicate microelectrodes were prepared with a tip resistance of 10–20 MΩ once filled with 3 M KCl. Upon tissue impalement, the membrane potential was allowed to stabilize (typically, around −85 mV). Tissues with resting membrane potentials more positive than −75 mV were rejected. Bipolar stimulation at 1.5x threshold was applied and recordings were performed in continuous mode with sampling at 20 kHz using ADInstruments and LabChart Software.
Interruption of perfusion/oxygenation; (2). Absence of Aps following stimulation at baseline; (3). Time frame of drug exposure not respected; (4). Unstable response to stimulation at baseline; (5). Resting membrane potential (RMP) > −75 mV; 7). Maximal amplitude of AP (AMAX) <70 mV; 8). AP duration at 90% repolarization (APD90) <200 ms or >450 ms.
Experimental Procedure: Each test article was evaluated at 4 concentrations in 4 ventricular trabeculae derived from a minimum of 2 donor hearts. Testing concentrations were chosen based upon human free ETPC, aiming to cover 1–100-fold of human free ETPC. […] Briefly, following stabilization of each tissue, APs were collected and assessed for 31 min in vehicle control solution (Tyrode with 0.1% DMSO) at stimulation frequencies of 1 Hz for 25 min, 2 Hz for 3 min and then 1 Hz for 3 min. Following this vehicle control period, 4 concentrations of a test compound were applied sequentially and cumulatively. Each concentration was applied for 31 min with the same stimulation sequence as in vehicle controls.
For each frequency tested, the last 30 APs acquired at the end of the period were averaged for vehicle controls and for each test article concentration. Analysis at 1 Hz included only the last 30 APs of the initial 25-min incubation period. The following AP parameters and pro-arrhythmia variables were analyzed offline upon the completion of recordings:
• RMP (mV) • AMAX (mV) • AP duration at percent repolarization (APD20, APD30, APD50, APD60, APD90) (ms) • Short term variability analysis of AP duration (STV): Beat-to-beat variability of repolarization was quantified as STV from APD90 Poincare plots over a period of 30 sec.
Compound effects were quantified relative to the data collected during the vehicle control period (see Figure 1). […] Additionally, based on AnaBios historical data, threshold values for changes over baseline control for AP instability, APD alternans, Maximum APD dispersion and ERP (APD) were based upon an effect level of 10%. When applicable, differences were tested for statistical significance using the unpaired Student's t-test. A value of P < 0.05 was considered significant.
AP parameters and pro-arrhythmia variables were combined into a meaningful, single score to assess the pro-arrhythmic risk of a compound at each concentration tested. The pro-arrhythmic potential of compounds at 1 or 2 Hz was determined by assigning a weighted scale to each variable (Table 1).

## Nc1nnc(-c2cccc(Cl)c2Cl)c(N)n1 [LAMOTRIGINE, Lamotrigine]
1Hz, 59-FOLD free ETPC (17µM)
  Refractoriness Escape (raw data): 0
2Hz, 0.6-FOLD free ETPC (17µM)
  AMAX (average raw data): 97
  AMAX percentage change compared to vehicle control: -7%
  APD30 (average raw data): 107
  APD30 percentage change compared to vehicle control: 2%
  APD50 (average raw data): 149
  APD50 percentage change compared to vehicle control: 3%
  APD90 (average raw data): 232
  APD90 percentage change compared to vehicle control: 2%
  Alternans (average raw data): 0.95
  Alternans percentage change compared to vehicle control: -59%
  Beat Escape percentage change compared to vehicle control: 0%
  EADs percentage change compared to vehicle control: 0%
  ERP (average raw data): 0.46
  ERP percentage change compared to vehicle control: 4%
  Max Dispersion (average raw data): 6.98
  Max Dispersion percentage change compared to vehicle control: 7%
  RMP (average raw data): -82
  RMP percentage change compared to vehicle control: -3%
  Refractoriness Escape percentage change compared to vehicle control: 0%
  STV (average raw data): 0.58
  Triangulation (average raw data): 124
  Triangulation percentage change compared to vehicle control: 2%
  Beat Escape (raw data): 0
  EADs (raw data): 0
  Refractoriness Escape (raw data): 0
2Hz, 6-FOLD free ETPC (17µM)
  AMAX (average raw data): 103
  AMAX percentage change compared to vehicle control: -2%
  APD30 (average raw data): 103
  APD30 percentage change compared to vehicle control: -1%
  APD50 (average raw data): 139
  APD50 percentage change compared to vehicle control: -3%
  APD90 (average raw data): 221
  APD90 percentage change compared to vehicle control: -3%
  Alternans (average raw data): 4.34
  Alternans percentage change compared to vehicle control: 90%
  Beat Escape percentage change compared to vehicle control: 25%
  EADs percentage change compared to vehicle control: 0%
  ERP (average raw data): 0.41
  ERP percentage change compared to vehicle control: -7%
  Max Dispersion (average raw data): 10.50
  Max Dispersion percentage change compared to vehicle control: 62%
  RMP (average raw data): -87
  RMP percentage change compared to vehicle control: 3%
  Refractoriness Escape percentage change compared to vehicle control: 0%
  STV (average raw data): 2.93
  Triangulation (average raw data): 117
  Triangulation percentage change compared to vehicle control: -4%
  Beat Escape (raw data): 1
  EADs (raw data): 0
  Refractoriness Escape (raw data): 0
2Hz, 18-FOLD free ETPC (17µM)
  AMAX (average raw data): 85
  AMAX percentage change compared to vehicle control: -16%
  APD30 (average raw data): 110
  APD30 percentage change compared to vehicle control: 4%
  APD50 (average raw data): 139
  APD50 percentage change compared to vehicle control: -4%
  APD90 (average raw data): 227
  APD90 percentage change compared to vehicle control: 2%
  Alternans (average raw data): 34.70
  Alternans percentage change compared to vehicle control: 1417%
  Beat Escape percentage change compared to vehicle control: 100%
  EADs percentage change compared to vehicle control: 0%
  ERP (average raw data): 0.33
  ERP percentage change compared to vehicle control: -25%
  Max Dispersion (average raw data): 42.23
  Max Dispersion percentage change compared to vehicle control: 550%
  RMP (average raw data): -90
  RMP percentage change compared to vehicle control: 10%
  Refractoriness Escape percentage change compared to vehicle control: 0%
  STV (average raw data): 18.59
  Triangulation (average raw data): 117
  Triangulation percentage change compared to vehicle control: -1%
  Beat Escape (raw data): 4
  EADs (raw data): 0
  Refractoriness Escape (raw data): 0
2Hz, 59-FOLD free ETPC (17µM)
  AMAX (average raw data): 48
  AMAX percentage change compared to vehicle control: -52%
  APD30 (average raw data): 106
  APD30 percentage change compared to vehicle control: 4%
  APD50 (average raw data): 145
  APD50 percentage change compared to vehicle control: 7%
  APD90 (average raw data): 268
  APD90 percentage change compared to vehicle control: 34%
  Alternans (average raw data): 3.93
  Alternans percentage change compared to vehicle control: 72%
  Beat Escape percentage change compared to vehicle control: 100%
  EADs percentage change compared to vehicle control: 0%
  ERP (average raw data): 0.41
  ERP percentage change compared to vehicle control: -7%
  Max Dispersion (average raw data): 21.90
  Max Dispersion percentage change compared to vehicle control: 237%
  RMP (average raw data): -74
  RMP percentage change compared to vehicle control: -6%
  Refractoriness Escape percentage change compared to vehicle control: 0%
  STV (average raw data): 2.81
  Triangulation (average raw data): 162
  Triangulation percentage change compared to vehicle control: 64%
  Beat Escape (raw data): 4
  EADs (raw data): 0
  Refractoriness Escape (raw data): 0
At 10-fold human free ETPC, score >10 unsafe, <10 safe
  TdP identification by pro-arrhythmic score: TdP positive
At 100, 300, and 1,000 μM
  pro-arrhythmic score: above 40
At therapeutic exposure
  pro-arrhythmic score: below 10

Source: PMC5760531, “Action Potential Recording and Pro-arrhythmia Risk Analysis in Human Ventricular Trabeculae” (Frontiers in Physiology, 2018)
